Experimental data as given in patent US6737383B1, “Herbicidal oxadiazolidines” (priority 1999, dated 2004).

Assays:
[1] = test system: duck salad; test: Test B flood test duck salad; assay type: in vivo, Heteranthera limosa
Experimental: (§1) At the same time, these crop and weed species were also treated with postemergence applications of test chemicals formulated in the same manner. Plants ranged in height from 2 to 18 cm (1- to 4-leaf stage) for postemergence treatments. Plant species in the flood test consisted of rice (Oryza sativa), smallflower flatsedge (Cyperus difformis), duck salad (Heteranthera limosa) and bamyardgrass (Echinochloa crus-galli) grown to the 2-leaf stage for testing. Treated plants and controls were maintained in a greenhouse for twelve to sixteen days, after which all species were compared to controls and visually evaluated. Plant response ratings, summarized in Table B, are based on a scale of 0 to 10 where 0 is no effect and 10 is complete control. A dash (−) response means no test result.

[2] = test system: smallflower flatsedge; test: Test B flood test smallflower flatsedge; assay type: in vivo, Cyperus difformis
Experimental: as §1

[3] = test system: bamyardgrass; test: Test B flood test barnyardgrass; assay type: in vivo, Echinochloa crus-galli
Experimental: as §1

[4] = test system: purple nutsedge; test: Test B pre/postemergence purple nutsedge; assay type: in vivo, Cyperus rotundus
Procedure, shortened: (§2)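 Test chemicals in a non-phytotoxic solvent mixture with surfactant were sprayed preemergence onto planted seeds and postemergence onto plants 2 to 18 cm tall (1- to 4-leaf stage). After twelve to sixteen days in a greenhouse, injury was visually rated against untreated controls from 0 (no effect) to 10 (complete control).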

[5] = test system: pigweed; test: Test B pre/postemergence pigweed; assay type: in vivo, Amaranthus retroflexus
Procedure, shortened: as §2

[6] = test system: wild oat; test: Test B pre/postemergence wild oat; assay type: in vivo, Avena fatua
Procedure, shortened: as §2

[7] = test system: bedstraw; test: Test B pre/postemergence bedstraw; assay type: in vivo, Galium aparine
Procedure, shortened: as §2

[8] = test system: blackgrass; test: Test B pre/postemergence blackgrass; assay type: in vivo, Alopecurus myosuroides
Procedure, shortened: as §2

[9] = test system: giant foxtail; test: Test B pre/postemergence giant foxtail; assay type: in vivo, Setaria faberii
Procedure, shortened: as §2

[10] = test system: rape; test: Test B pre/postemergence rape; assay type: in vivo, Brassica napus
Procedure, shortened: as §2

[11] = test system: morningglory; test: Test B pre/postemergence morningglory; assay type: in vivo, Ipomoea hederacea
Procedure, shortened: as §2

[12] = test system: corn; test: Test B pre/postemergence corn; assay type: in vivo, Zea mays
Procedure, shortened: as §2

[13] = test system: soybean; test: Test B pre/postemergence soybean; assay type: in vivo, Glycine max
Procedure, shortened: as §2

[14] = test system: velvetleaf; test: Test B pre/postemergence velvetleaf; assay type: in vivo, Abutilon theophrasti
Procedure, shortened: as §2

[15] = test system: surinam grass; test: Test B pre/postemergence surinam grass; assay type: in vivo, Brachiaria decumbens
Procedure, shortened: as §2

[16] = test system: sugar beet; test: Test B pre/postemergence sugar beet; assay type: in vivo, Beta vulgaris
Procedure, shortened: as §2

[17] = test system: cocklebur; test: Test B pre/postemergence cocklebur; assay type: in vivo, Xanthium strumarium
Procedure, shortened: as §2

[18] = test system: wheat; test: Test B pre/postemergence wheat; assay type: in vivo, Triticum aestivum
Procedure, shortened: as §2

[19] = test system: crabgrass; test: Test B pre/postemergence crabgrass; assay type: in vivo, Digitaria sanguinalis
Procedure, shortened: as §2

[20] = Rate 62 g/ha, flood test species, Pre-emergence, visual evaluation after twelve to sixteen days
[21] = Rate 125 g/ha, under heading Pre-emergence, flood test species, visual evaluation after twelve to sixteen days
[22] = Rate 250 g/ha, Pre-emergence (flood test species), scale 0 to 10, 0 is no effect, 10 is complete control
[23] = Rate 500 g/ha, Pre-emergence section of Table B, 0 to 10 scale (0 no effect, 10 complete control)
[24] = Postemergence, Rate 62 g/ha, scale of 0 to 10, 0 is no effect, 10 is complete control
[25] = Postemergence, Rate 125 g/ha, scale 0 to 10, 0 is no effect, 10 is complete control
[26] = Postemergence, Rate 500 g/ha, scale 0 to 10, 0 is no effect, 10 is complete control
[27] = Preemergence, Rate 62 g/ha, scale 0 to 10 (0 no effect, 10 complete control)
[28] = Preemergence, Rate 125 g/ha, scale 0 to 10, 0 is no effect, 10 is complete control
[29] = Preemergence, Rate 500 g/ha, scale of 0 to 10 where 0 is no effect and 10 is complete control
[30] = Rate 250 g/ha, Postemergence, scale of 0 to 10 where 0 is no effect and 10 is complete control

CC(C)N(C(=O)n1oc(=O)n(CCc2ccccc2)c1=O)c1ccc(Cl)cc1 [Compound 538]
Plant response rating, Ducksalad (0 to 10 scale, 0 is no effect, 10 is complete control) [1, 20]: 0
Ducksalad plant response rating (0 to 10 scale, 0 is no effect, 10 is complete control) [1, 21]: 0
Ducksalad plant response rating [1, 22]: 0
Ducksalad plant response rating [1, 23]: 0
Plant response rating, S. Flatsedge (0 to 10 scale, 0 is no effect, 10 is complete control) [2, 20]: 0
S. Flatsedge plant response rating (0 to 10 scale, 0 is no effect, 10 is complete control) [2, 21]: 0
S. Flatsedge plant response rating [2, 22]: 0
S. Flatsedge plant response rating [2, 23]: 0
Plant response rating, Barnyardgrass (0 to 10 scale, 0 is no effect, 10 is complete control) [3, 20]: 0
Barnyardgrass plant response rating (0 to 10 scale, 0 is no effect, 10 is complete control) [3, 21]: 0
Barnyardgrass plant response rating [3, 22]: 0
Barnyardgrass plant response rating [3, 23]: 0

CC(Cl)=CCn1c(=O)on(C(=O)N(c2ccc(Cl)cc2)C(C)C)c1=O [Compound 544]
Nutsedge plant response rating [4, 24]: 0
Nutsedge plant response rating [4, 25]: 0
Plant response rating, Nutsedge [4, 26]: 0
Nutsedge plant response rating [4, 27]: 0
Nutsedge plant response rating [4, 28]: 0
Nutsedge plant response rating (0 to 10 scale) ([4]; Preemergence, Rate 250 g/ha): 0
Nutsedge plant response rating [4, 29]: 0
Plant response rating, Nutsedge [4, 30]: 0
Redroot pigweed plant response rating [5, 24]: 0
Redroot pigweed plant response rating [5, 25]: 0
Plant response rating, Redroot pigweed [5, 26]: 2
Redroot pigweed plant response rating [5, 27]: 3
Redroot pigweed plant response rating [5, 28]: 3
Redroot pigweed plant response rating (0 to 10 scale) ([5]; Preemergence, Rate 250 g/ha): 3
Redroot pigweed plant response rating [5, 29]: 10
Plant response rating, Redroot pigweed [5, 30]: 0
Wild oats plant response rating [6, 24]: 0
Wild oats plant response rating [6, 25]: 0
Plant response rating, Wild oats [6, 26]: 2
Wild oats plant response rating [6, 27]: 0
Wild oats plant response rating [6, 28]: 0
Wild oats plant response rating (0 to 10 scale) ([6]; Preemergence, Rate 250 g/ha): 2
Wild oats plant response rating [6, 29]: 4
Plant response rating, Wild oats [6, 30]: 0
Bedstraw plant response rating [7, 24]: 0
Bedstraw plant response rating [7, 25]: 2
Plant response rating, Bedstraw [7, 26]: 3
Bedstraw plant response rating [7, 27]: 0
Bedstraw plant response rating [7, 28]: 2
Bedstraw plant response rating (0 to 10 scale) ([7]; Preemergence, Rate 250 g/ha): 7
Bedstraw plant response rating [7, 29]: 9
Plant response rating, Bedstraw [7, 30]: 2
Blackgrass plant response rating [8, 24]: 0
Blackgrass plant response rating [8, 25]: 0
Plant response rating, Blackgrass [8, 26]: 3
Blackgrass plant response rating [8, 27]: 0
Blackgrass plant response rating [8, 28]: 0
Blackgrass plant response rating (0 to 10 scale) ([8]; Preemergence, Rate 250 g/ha): 2
Blackgrass plant response rating [8, 29]: 6
Plant response rating, Blackgrass [8, 30]: 0
Giant foxtail plant response rating [9, 24]: 0
Giant foxtail plant response rating [9, 25]: 0
Giant foxtail plant response rating [9, 27]: 9
Giant foxtail plant response rating [9, 28]: 10
Giant foxtail plant response rating (0 to 10 scale) ([9]; Preemergence, Rate 250 g/ha): 10
Giant foxtail plant response rating [9, 29]: 10
Plant response rating, Giant foxtail [9, 30]: 6
Rape plant response rating [10, 24]: 0
Rape plant response rating [10, 25]: 2
Plant response rating, Rape [10, 26]: 3
Rape plant response rating [10, 27]: 0
Rape plant response rating [10, 28]: 0
Rape plant response rating (0 to 10 scale) ([10]; Preemergence, Rate 250 g/ha): 3
Rape plant response rating [10, 29]: 6
Plant response rating, Rape [10, 30]: 2
Morningglory plant response rating [11, 24]: 3
Morningglory plant response rating [11, 25]: 4
Plant response rating, Morningglory [11, 26]: 10
Morningglory plant response rating [11, 27]: 0
Morningglory plant response rating [11, 28]: 0
Morningglory plant response rating (0 to 10 scale) ([11]; Preemergence, Rate 250 g/ha): 0
Morningglory plant response rating [11, 29]: 0
Plant response rating, Morningglory [11, 30]: 10
Corn plant response rating [12, 24]: 0
Corn plant response rating [12, 25]: 0
Plant response rating, Corn [12, 26]: 0
Corn plant response rating [12, 27]: 0
Corn plant response rating [12, 28]: 0
Corn plant response rating (0 to 10 scale) ([12]; Preemergence, Rate 250 g/ha): 0
Corn plant response rating [12, 29]: 0
Plant response rating, Corn [12, 30]: 0
Soybean plant response rating [13, 24]: 0
Soybean plant response rating [13, 25]: 2
Plant response rating, Soybean [13, 26]: 2
Soybean plant response rating [13, 27]: 0
Soybean plant response rating [13, 28]: 0
Soybean plant response rating (0 to 10 scale) ([13]; Preemergence, Rate 250 g/ha): 0
Soybean plant response rating [13, 29]: 0
Plant response rating, Soybean [13, 30]: 0
Velvetleaf plant response rating [14, 24]: 0
Velvetleaf plant response rating [14, 25]: 0
Plant response rating, Velvetleaf [14, 26]: 0
Velvetleaf plant response rating [14, 27]: 0
Velvetleaf plant response rating [14, 28]: 0
Velvetleaf plant response rating (0 to 10 scale) ([14]; Preemergence, Rate 250 g/ha): 0
Velvetleaf plant response rating [14, 29]: 0
Plant response rating, Velvetleaf [14, 30]: 0
B. signalgrass plant response rating [15, 24]: 0
B. signalgrass plant response rating [15, 25]: 0
Plant response rating, B. signalgrass [15, 26]: 3
B. signalgrass plant response rating [15, 27]: 3
B. signalgrass plant response rating [15, 28]: 3
B. signalgrass plant response rating (0 to 10 scale, 0 is no effect, 10 is complete control) ([15]; Preemergence, Rate 250 g/ha): 6
B. signalgrass plant response rating [15, 29]: 8
Plant response rating, B. signalgrass [15, 30]: 0
Sugarbeets plant response rating [16, 24]: 0
Sugarbeets plant response rating [16, 25]: 0
Plant response rating, Sugarbeets [16, 26]: 3
Sugarbeets plant response rating [16, 27]: 0
Sugarbeets plant response rating [16, 28]: 0
Sugarbeets plant response rating (0 to 10 scale) ([16]; Preemergence, Rate 250 g/ha): 0
Sugarbeets plant response rating [16, 29]: 4
Plant response rating, Sugarbeets [16, 30]: 1
Cocklebur plant response rating [17, 24]: 3
Cocklebur plant response rating [17, 25]: 3
Plant response rating, Cocklebur [17, 26]: 3
Cocklebur plant response rating [17, 27]: 0
Cocklebur plant response rating (0 to 10 scale) ([17]; Preemergence, Rate 250 g/ha): 0
Cocklebur plant response rating [17, 29]: 0
Plant response rating, Cocklebur [17, 30]: 3
Wheat plant response rating [18, 24]: 0
Wheat plant response rating [18, 25]: 0
Plant response rating, Wheat [18, 26]: 0
Wheat plant response rating [18, 27]: 0
Wheat plant response rating [18, 28]: 0
Wheat plant response rating (0 to 10 scale) ([18]; Preemergence, Rate 250 g/ha): 0
Wheat plant response rating [18, 29]: 0
Plant response rating, Wheat [18, 30]: 0
Crabgrass plant response rating [19, 24]: 0
Crabgrass plant response rating [19, 25]: 8
Plant response rating, Crabgrass [19, 26]: 9
Crabgrass plant response rating [19, 27]: 9
Crabgrass plant response rating [19, 28]: 9
Crabgrass plant response rating (0 to 10 scale) ([19]; Preemergence, Rate 250 g/ha): 10
Crabgrass plant response rating [19, 29]: 10
Plant response rating, Crabgrass [19, 30]: 8
